Reference: patent publication US10106553B2, “Substituted benzothiophenyl derivatives as GPR40 agonists for the treatment of type II diabetes” (Janssen Pharmaceutica NV, priority 2016, dated 2018)

Target: human GPR40 (Homo sapiens (Human), UniProt O14842)
Experiment: GPR40 Calcium Flux Assay;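 further: calcium flux followed with the Fluo-8 fluorescent dye, intensity read each second over 8 min as compounds were added to the cells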
Type: cell-based
Details: transfected HEK293 cells stably expressing human GPR40; Ca2+ mobilization; mean data; read-out: hGPR40 Ca^2+ Assay EC50

human GPR40, sequence (O14842 whole entry): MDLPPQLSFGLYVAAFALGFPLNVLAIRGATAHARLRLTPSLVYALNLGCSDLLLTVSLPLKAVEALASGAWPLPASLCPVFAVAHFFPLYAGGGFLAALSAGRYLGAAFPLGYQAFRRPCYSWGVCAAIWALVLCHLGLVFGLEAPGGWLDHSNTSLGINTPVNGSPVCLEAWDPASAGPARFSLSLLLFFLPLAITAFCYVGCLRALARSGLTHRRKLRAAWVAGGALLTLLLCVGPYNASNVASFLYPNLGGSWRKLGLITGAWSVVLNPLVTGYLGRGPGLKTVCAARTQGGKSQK

Structure (SMILES)	EC50
CC#C[C@@H](Cc1nnn[nH]1)c1ccc(OCc2ccc3scc(-c4cnc(OCCOC)cc4C)c3c2)cc1 [Cpd 21, (2S)-5-(5-((4-(1-(1H-Tetrazol-5-yl)pent-3-yn-2-yl)phenoxy)methyl)benzo[b]thiophen-3-yl)-2-(2-methoxyethoxy)-4-methylpyridine]	0.051 µM
CC#C[C@@H](Cc1nnn[nH]1)c1ccc(OCc2ccc3scc(-c4ccccc4C)c3c2)nc1 [Cpd 40, (2R)-5-(1-(1H-Tetrazol-5-yl)pent-3-yn-2-yl)-2-((3-(2-methylphenyl)benzo[b]thiophen-5-yl)methoxy)pyridine]	0.058 µM
CC#C[C@@H](Cc1nnn[nH]1)c1ccc(OCc2ccc3scc(-c4c(C)cccc4C)c3c2)cc1 [Cpd 20, (2S)-5-(2-(4-((3-(2,6-Dimethylphenyl)benzo[b]thiophen-5-yl)methoxy)phenyl)pent-3-yn-1-yl)-1H-tetrazole]	0.024 µM
CC#C[C@@H](Cc1nnn[nH]1)c1ccc(OCc2ccc3scc(-c4ccccc4Br)c3c2)cc1 [Cpd 4, (2S)-5-(2-(4-((3-(2-Bromophenyl)benzo[b]thiophen-5-yl)methoxy)phenyl)pent-3-yn-1-yl)-1H-tetrazole]	0.02 µM
CC#C[C@@H](Cc1nnn[nH]1)c1ccc(OCc2ccc3scc(-c4cccc(OCCOC)c4C)c3c2)nc1 [Cpd 42, (2R)-5-(1-(1H-Tetrazol-5-yl)pent-3-yn-2-yl)-2-((3-(3-(2-methoxyethoxy)-2-methylphenyl)benzo[b]thiophen-5-yl)methoxy)pyridine]	0.12 µM
CC#C[C@@H](Cc1nnn[nH]1)c1ccc(OCc2ccc3scc(C(C)C)c3c2)cc1 [Cpd 58, (2S)-5-(2-(4-((3-Isopropylbenzo[b]thiophen-5-yl)methoxy)phenyl)pent-3-yn-1-yl)-1H-tetrazole]	0.1 µM
CC#C[C@@H](Cc1nnn[nH]1)c1ccc(OCc2cc(C)c3scc(C4CCCC4)c3c2)cc1 [Cpd 65, (2S)-5-(2-(4-((3-Cyclopentyl-7-methylbenzo[b]thiophen-5-yl)methoxy)phenyl)pent-3-yn-1-yl)-1H-tetrazole]	0.44 µM
CC#C[C@@H](Cc1nnn[nH]1)c1ccc(OCc2ccc3scc(-c4cccc5c4CCN5C(=O)CC)c3c2)cc1 [Cpd 28, (2S)-1-(4-(5-((4-(1-(1H-tetrazol-5-yl)pent-3-yn-2-yl)phenoxy)methyl)benzo[b]thiophen-3-yl)indolin-1-yl)propan-1-one]	0.027 µM
CC#C[C@@H](Cc1nnn[nH]1)c1ccc(OCc2ccc3scc(-c4ccc(OCCOC)cc4C)c3c2)nc1 [Cpd 41, (2R)-5-(1-(1H-Tetrazol-5-yl)pent-3-yn-2-yl)-2-((3-(4-(2-methoxyethoxy)-2-methylphenyl)benzo[b]thiophen-5-yl)methoxy)pyridine]	0.019 µM
CC#C[C@@H](Cc1nnn[nH]1)c1ccc(OCc2cnc3scc(-c4ccc(OC)cc4C)c3c2)cc1 [Cpd 50, (2S)-5-((4-(1-(1H-Tetrazol-5-yl)pent-3-yn-2-yl)phenoxy)methyl)-3-(4-methoxy-2-methylphenyl)thieno[2,3-b]pyridine]	0.052 µM
CC#C[C@@H](Cc1nnn[nH]1)c1ccc(OCc2ccc3scc(-c4ccccc4C)c3n2)cc1 [Cpd 53, (2S)-5-((4-(1-(1H-Tetrazol-5-yl)pent-3-yn-2-yl)phenoxy)methyl)-3-(2-methylphenyl)thieno[3,2-b]pyridine]	0.17 µM
CC#C[C@@H](Cc1nnn[nH]1)c1ccc(OCc2ccc3scc(-c4cccc5c4CCC(C)(C)O5)c3c2)cc1 [Cpd 30, (2S)-5-(2-(4-((3-(2,2-Dimethylchroman-5-yl)benzo[b]thiophen-5-yl)methoxy)phenyl)pent-3-yn-1-yl)-1H-tetrazole]	0.43 µM
CC#C[C@@H](Cc1nnn[nH]1)c1ccc(OCc2ccc3scc(-c4ccc(OC)cc4C)c3n2)cc1 [Cpd 54, (2S)-5-((4-(1-(1H-Tetrazol-5-yl)pent-3-yn-2-yl)phenoxy)methyl)-3-(4-methoxy-2-methylphenyl)thieno[3,2-b]pyridine]	0.18 µM
CC#C[C@@H](Cc1nnn[nH]1)c1ccc(OCc2ccc3scc(-c4nccnc4C)c3c2)cc1 [Cpd 24, (2S)-2-(5-((4-(1-(1H-Tetrazol-5-yl)pent-3-yn-2-yl)phenoxy)methyl)benzo[b]thiophen-3-yl)-3-methylpyrazine]	0.55 µM
CC#C[C@@H](Cc1nnn[nH]1)c1ccc(OCc2cc(C)c3scc(C4CCCCC4)c3c2)cc1 [Cpd 66, (2S)-5-(2-(4-((3-Cyclohexyl-7-methylbenzo[b]thiophen-5-yl)methoxy)phenyl)pent-3-yn-1-yl)-1H-tetrazole]	1.12 µM
CC#C[C@@H](Cc1nnn[nH]1)c1ccc(OCc2ccc3scc(-c4ccc(S(C)(=O)=O)cc4C)c3c2)cc1 [Cpd 14, (2S)-5-(2-(4-((3-(2-Methyl-4-(methylsulfonyl)phenyl)benzo[b]thiophen-5-yl)methoxy)phenyl)pent-3-yn-1-yl)-1H-tetrazole]	0.13 µM
CC#C[C@@H](Cc1nnn[nH]1)c1ccc(OCc2cc(C)c3scc(CCCC)c3c2)cc1 [Cpd 64, (2S)-5-(2-(4-((3-Butyl-7-methylbenzo[b]thiophen-5-yl)methoxy)phenyl)pent-3-yn-1-yl)-1H-tetrazole]	0.33 µM

Structure (SMILES)	EC50
CC#C[C@@H](Cc1nnn[nH]1)c1ccc(OCc2ccc3scc(C4CCCC4)c3c2)cc1 [Cpd 56, (2S)-5-(2-(4-((3-Cyclopentylbenzo[b]thiophen-5-yl)methoxy)phenyl)pent-3-yn-1-yl)-1H-tetrazole]	0.054 µM
CC#C[C@@H](Cc1nnn[nH]1)c1ccc(OCc2ccc3scc(CCC)c3c2)cc1 [Cpd 59, (2S)-5-(2-(4-((3-Propylbenzo[b]thiophen-5-yl)methoxy)phenyl)pent-3-yn-1-yl)-1H-tetrazole]	0.13 µM
CC#C[C@@H](Cc1nnn[nH]1)c1ccc(OCc2ccc3scc(-c4ccccc4Cl)c3c2)cc1 [Cpd 32, (2S)-5-(2-(4-((3-(2-Chlorophenyl)benzo[b]thiophen-5-yl)methoxy)phenyl)pent-3-yn-1-yl)-1H-tetrazole]	0.011 µM
CC#C[C@@H](Cc1nnn[nH]1)c1ccc(OCc2ccc3sccc3c2)cc1 [Cpd 60, (2S)-5-(2-(4-(Benzo[b]thiophen-5-ylmethoxy)phenyl)pent-3-yn-1-yl)-1H-tetrazole]	0.11 µM
CC#C[C@@H](Cc1nnn[nH]1)c1ccc(OCc2ccc3scc(-c4ccc(OC5CCOCC5)cc4C)c3c2)cc1 [Cpd 9, (2S)-5-(2-(4-((3-(2-Methyl-4-((tetrahydro-2H-pyran-4-yl)oxy)phenyl)benzo[b]thiophen-5-yl)methoxy)phenyl)pent-3-yn-1-yl)-1H-tetrazole]	0.27 µM
CC#C[C@@H](Cc1nnn[nH]1)c1ccc(OCc2cc3c(-c4ccccc4C)csc3cn2)cc1 [Cpd 51, (2S)-5-((4-(1-(1H-Tetrazol-5-yl)pent-3-yn-2-yl)phenoxy)methyl)-3-(2-methylphenyl)thieno[2,3-c]pyridine]	0.003 µM
CC#C[C@@H](Cc1nnn[nH]1)c1ccc(OCc2ccc3scc(-c4cccc5c4OCCO5)c3c2)cc1 [Cpd 27, (2S)-5-(2-(4-((3-(2,3-Dihydrobenzo[b][1,4]dioxin-5-yl)benzo[b]thiophen-5-yl)methoxy)phenyl)pent-3-yn-1-yl)-1H-tetrazole]	0.061 µM
CC#C[C@@H](Cc1nnn[nH]1)c1ccc(OCc2ccc3scc(-c4cc(Cl)ncc4C)c3c2)cc1 [Cpd 5, (2S)-4-(5-((4-(1-(1H-Tetrazol-5-yl)pent-3-yn-2-yl)phenoxy)methyl)benzo[b]thiophen-3-yl)-2-chloro-5-methylpyridine]	0.065 µM
CC#C[C@@H](Cc1nnn[nH]1)c1ccc(OCc2ccc3sc(C)c(-c4ccc(OC5CCS(=O)(=O)CC5)cc4C)c3c2)cc1 [Cpd 18, 4-(4-(5-((4-((2S)-1-(1H-Tetrazol-5-yl)pent-3-yn-2-yl)phenoxy)methyl)-2-methylbenzo[b]thiophen-3-yl)-3-methylphenoxy)tetrahydro-2H-thiopyran 1,1-dioxide]	0.08 µM
CC#C[C@@H](Cc1nnn[nH]1)c1ccc(OCc2ccc3scc(-c4ccc(C5CCS(=O)(=O)CC5)cc4C)c3c2)cc1 [Cpd 17, (2S)-4-(4-(5-((4-(1-(1H-Tetrazol-5-yl)pent-3-yn-2-yl)phenoxy)methyl)benzo[b]thiophen-3-yl)-3-methylphenyl)tetrahydro-2H-thiopyran 1,1-dioxide]	0.097 µM
CC#C[C@@H](Cc1nnn[nH]1)c1ccc(OCc2cc3c(-c4ccc(OC)cc4C)csc3cn2)cc1 [Cpd 52, (2S)-5-((4-(1-(1H-Tetrazol-5-yl)pent-3-yn-2-yl)phenoxy)methyl)-3-(4-methoxy-2-methylphenyl)thieno[2,3-c]pyridine]	0.001 µM
CC#C[C@@H](Cc1nnn[nH]1)c1ccc(OCc2cnc3scc(-c4ccccc4C)c3c2)cc1 [Cpd 49, (2S)-5-((4-(1-(1H-Tetrazol-5-yl)pent-3-yn-2-yl)phenoxy)methyl)-3-(2-methylphenyl)thieno[2,3-b]pyridine]	0.01 µM
CC#C[C@@H](Cc1nnn[nH]1)c1ccc(OCc2ccc3scc(-c4cc(NS(C)(=O)=O)ccc4C)c3c2)cc1 [Cpd 29, (2S)—N-(3-(5-((4-(1-(1H-tetrazol-5-yl)pent-3-yn-2-yl)phenoxy)methyl)benzo[b]thiophen-3-yl)-4-methylphenyl)methanesulfonamide]	0.42 µM
CC#C[C@@H](Cc1nnn[nH]1)c1ccc(OCc2ccc3sc(C(F)(F)F)c(C4CC4)c3c2)cc1 [Cpd 37, (2S)-5-(2-(4-((3-Cyclopropyl-2-(trifluoromethyl)benzo[b]thiophen-5-yl)methoxy)phenyl)pent-3-yn-1-yl)-1H-tetrazole]	0.59 µM
CC#C[C@@H](Cc1nnn[nH]1)c1ccc(OCc2ccc3scc(-c4ncnn4C)c3c2)cc1 [Cpd 23, (2S)-5-(2-(4-((3-(1-Methyl-1H-1,2,4-triazol-5-yl)benzo[b]thiophen-5-yl)methoxy)phenyl)pent-3-yn-1-yl)-1H-tetrazole]	1.74 µM
CC#C[C@@H](Cc1nnn[nH]1)c1ccc(OCc2ccc3scc(-c4ccc(OCC5(O)CCS(=O)(=O)CC5)cc4C)c3c2)cc1 [Cpd 6, (2S)-4-((4-(5-((4-(1-(1H-Tetrazol-5-yl)pent-3-yn-2-yl)phenoxy)methyl)benzo[b]thiophen-3-yl)-3-methylphenoxy)methyl)-4-hydroxytetrahydro-2H-thiopyran 1,1-dioxide]	0.19 µM
